Laboratory results: ChEMBL document CHEMBL4330157, “Lycopodium Alkaloids: Lycoplatyrine A, an Unusual Lycodine-Piperidine Adduct from Lycopodium platyrhizoma and the Absolute Configurations of Lycoplanine D and Lycogladine H” (J Nat Prod, 2019)

These compounds were tested against Acetylcholinesterase (Homo sapiens, UniProt P22303) (assay: Inhibition of AChE (unknown origin) using acetylthiocholine as substrate preincubated for 15 mins followed by substrate addition measured every minute for 15 mins by Ellman's method).
Chain of Acetylcholinesterase (P22303 whole entry): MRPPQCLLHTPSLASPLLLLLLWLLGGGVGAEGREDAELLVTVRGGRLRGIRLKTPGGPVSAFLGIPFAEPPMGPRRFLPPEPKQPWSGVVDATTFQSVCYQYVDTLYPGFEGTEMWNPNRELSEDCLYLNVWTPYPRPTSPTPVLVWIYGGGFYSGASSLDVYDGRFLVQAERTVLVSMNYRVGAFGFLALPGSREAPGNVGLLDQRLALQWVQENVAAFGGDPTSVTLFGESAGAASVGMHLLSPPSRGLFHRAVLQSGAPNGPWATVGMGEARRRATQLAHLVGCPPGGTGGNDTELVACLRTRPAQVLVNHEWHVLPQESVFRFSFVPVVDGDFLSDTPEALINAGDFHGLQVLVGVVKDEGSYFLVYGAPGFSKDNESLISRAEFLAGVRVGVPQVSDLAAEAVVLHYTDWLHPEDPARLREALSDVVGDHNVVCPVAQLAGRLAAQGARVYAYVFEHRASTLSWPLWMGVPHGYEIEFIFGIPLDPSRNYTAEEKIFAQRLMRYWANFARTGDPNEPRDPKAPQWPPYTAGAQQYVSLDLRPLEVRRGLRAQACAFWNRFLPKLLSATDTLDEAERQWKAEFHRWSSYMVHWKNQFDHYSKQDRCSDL

| Compound | IC50 |
| --- | --- |
| CC1C[C@H]2[C@H](O)[C@@H]3O[C@]4(C1)OC1CCN5CCCC24[C@]13C5 (stereo partly drawn) | > 30 µM |
| C[C@@H]1C[C@H]2Cc3ncc(C4CCCCN4)cc3[C@]3(C1)NCCC[C@H]23 (stereo partly drawn) | > 30 µM |
| C=C[C@@H]1[C@@H]2CC3=C(CCC(=O)N3)[C@@]1(N)C[C@H](C)C2 | > 30 µM |
